Activity calls are given as the source filed them.
What was measured:
[1] = HEp-2 cell cytotoxicity, dose response, cytotoxicity control for RSV inhibitor project, HTS (AID 2410); type: functional; details: human respiratory syncytial virus
[2] = target: Neurotensin receptor type 1 (Homo sapiens, UniProt P30989); type: functional;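 also: Image-based confirmatory dose-response assay measuring agonist activity at NTR1; NTR1-expressing U2OS osteosarcoma cells imaged for beta-arrestin GFP spot formation; agonist potency where compounds increase beta-arrestin recruitment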
Sequence of Neurotensin receptor type 1 (P30989 whole entry): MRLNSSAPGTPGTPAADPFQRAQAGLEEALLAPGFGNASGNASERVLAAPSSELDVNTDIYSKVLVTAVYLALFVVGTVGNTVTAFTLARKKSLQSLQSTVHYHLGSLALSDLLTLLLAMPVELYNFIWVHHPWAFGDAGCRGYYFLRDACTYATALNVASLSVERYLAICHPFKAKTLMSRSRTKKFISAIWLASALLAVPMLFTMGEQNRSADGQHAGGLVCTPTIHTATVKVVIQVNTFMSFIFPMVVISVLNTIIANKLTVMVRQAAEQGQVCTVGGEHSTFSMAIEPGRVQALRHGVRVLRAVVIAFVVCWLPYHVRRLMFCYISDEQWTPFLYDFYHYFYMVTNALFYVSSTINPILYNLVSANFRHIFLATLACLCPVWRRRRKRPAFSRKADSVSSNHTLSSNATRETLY

[3] = target: T1, Microphthalmia-associated transcription factor (Homo sapiens, UniProt O75030); experiment: TRPM1 promoter luciferase signal decrease, dose response, MITF inhibitor project, cell-based, SK-MEL-5, cherry-picked, set 3 (AID 493073); type: functional
T1 sequence (O75030 whole entry): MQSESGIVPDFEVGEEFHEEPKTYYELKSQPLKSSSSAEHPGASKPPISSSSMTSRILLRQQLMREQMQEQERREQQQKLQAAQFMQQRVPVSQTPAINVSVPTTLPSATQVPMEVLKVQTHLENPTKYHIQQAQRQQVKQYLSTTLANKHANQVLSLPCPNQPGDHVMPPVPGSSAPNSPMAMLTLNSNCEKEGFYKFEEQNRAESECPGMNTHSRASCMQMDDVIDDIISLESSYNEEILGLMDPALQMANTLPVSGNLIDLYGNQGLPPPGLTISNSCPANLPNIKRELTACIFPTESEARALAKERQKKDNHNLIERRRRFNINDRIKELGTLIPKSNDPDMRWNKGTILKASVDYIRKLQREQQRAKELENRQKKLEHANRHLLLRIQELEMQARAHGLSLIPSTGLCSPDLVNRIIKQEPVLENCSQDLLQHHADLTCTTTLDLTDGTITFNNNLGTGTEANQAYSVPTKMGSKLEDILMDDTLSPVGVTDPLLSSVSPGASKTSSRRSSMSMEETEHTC

[4] = cytotoxicity in HEK-293T cells, dose response, cytotoxicity control for BCR NF-kB inhibitor project, luminescence, B-cell screen hits (AID 489021); type: functional, cell-based;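 also: HEK-293T cells carrying an NF-kB luciferase reporter; cells exposed to compound for about 14 hours before viability readout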
[5] = target: Trypsin (Sus scrofa, UniProt P00761); experiment: porcine trypsin inhibitors, dose response, selectivity assay for Rce1 protease inhibitor project, biochemical, quenched peptide fluorescence, cherry-pick (AID 488789)
Sequence of Trypsin (P00761 whole entry): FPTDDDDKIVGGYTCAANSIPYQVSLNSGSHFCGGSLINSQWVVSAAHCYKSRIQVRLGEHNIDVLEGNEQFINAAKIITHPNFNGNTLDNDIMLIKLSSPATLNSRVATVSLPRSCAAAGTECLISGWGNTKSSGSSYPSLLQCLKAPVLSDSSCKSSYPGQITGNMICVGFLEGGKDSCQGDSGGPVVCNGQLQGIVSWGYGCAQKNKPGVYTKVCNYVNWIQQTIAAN

[6] = target: T2, CAAX prenyl protease 1 (Saccharomyces cerevisiae S288c, UniProt P47154); experiment: Ste24 protease inhibitors, dose response, biochemical, S. cerevisiae, plate reader, cherry-pick (AID 488815)
T2 sequence (P47154 whole entry): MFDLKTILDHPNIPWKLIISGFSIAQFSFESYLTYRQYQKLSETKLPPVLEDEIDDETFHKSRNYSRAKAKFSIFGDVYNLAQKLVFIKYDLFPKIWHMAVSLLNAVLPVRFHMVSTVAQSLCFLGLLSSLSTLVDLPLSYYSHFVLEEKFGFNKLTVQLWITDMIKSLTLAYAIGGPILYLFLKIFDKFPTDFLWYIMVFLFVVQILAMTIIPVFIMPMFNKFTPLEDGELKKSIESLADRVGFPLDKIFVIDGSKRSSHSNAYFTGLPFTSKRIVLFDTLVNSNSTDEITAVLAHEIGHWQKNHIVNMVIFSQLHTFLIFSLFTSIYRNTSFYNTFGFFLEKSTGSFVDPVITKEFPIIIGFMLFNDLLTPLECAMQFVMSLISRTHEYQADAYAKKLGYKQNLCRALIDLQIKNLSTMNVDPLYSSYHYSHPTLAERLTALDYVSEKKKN

[7] = target: T3, CAAX prenyl protease 2 (Homo sapiens, UniProt Q9Y256); experiment: human Rce1 protease inhibitors, dose response, biochemical, yeast membranes, quenched-peptide fluorescence, cherry-pick (AID 588849)
T3 sequence (Q9Y256 whole entry): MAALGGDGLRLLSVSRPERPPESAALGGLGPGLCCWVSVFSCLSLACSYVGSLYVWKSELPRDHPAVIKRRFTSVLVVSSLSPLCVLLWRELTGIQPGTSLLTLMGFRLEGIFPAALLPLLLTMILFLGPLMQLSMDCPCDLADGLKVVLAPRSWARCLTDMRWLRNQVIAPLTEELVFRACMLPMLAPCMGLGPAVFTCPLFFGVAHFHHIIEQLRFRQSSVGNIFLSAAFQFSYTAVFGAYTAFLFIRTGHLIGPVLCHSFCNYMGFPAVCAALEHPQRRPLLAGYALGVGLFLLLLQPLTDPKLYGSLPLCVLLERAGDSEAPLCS

[8] = target: Eukaryotic translation initiation factor 4E (Mus musculus, UniProt P63073); experiment: eIF4E–eIF4G protein interaction inhibitors, dose response, biochemical, TR-FRET (AID 855); type: functional;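 also: potency for disrupting eIF4E binding to eIF4GI seen as loss of FRET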
Sequence of Eukaryotic translation initiation factor 4E (P63073 whole entry): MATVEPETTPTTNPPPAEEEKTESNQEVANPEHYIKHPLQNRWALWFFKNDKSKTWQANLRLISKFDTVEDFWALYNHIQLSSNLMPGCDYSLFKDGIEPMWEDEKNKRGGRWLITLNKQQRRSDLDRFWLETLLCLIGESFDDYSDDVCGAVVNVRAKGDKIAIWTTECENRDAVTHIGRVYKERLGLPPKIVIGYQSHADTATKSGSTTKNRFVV

[9] = target: Genome polyprotein (dengue virus type 2, UniProt P29990); experiment: Dengue-2 NS5 methyltransferase inhibitors, primary screen, biochemical, confirmation dose response (AID 588689); type: functional
Sequence of Genome polyprotein (P29990 2492-3391 limits assumed): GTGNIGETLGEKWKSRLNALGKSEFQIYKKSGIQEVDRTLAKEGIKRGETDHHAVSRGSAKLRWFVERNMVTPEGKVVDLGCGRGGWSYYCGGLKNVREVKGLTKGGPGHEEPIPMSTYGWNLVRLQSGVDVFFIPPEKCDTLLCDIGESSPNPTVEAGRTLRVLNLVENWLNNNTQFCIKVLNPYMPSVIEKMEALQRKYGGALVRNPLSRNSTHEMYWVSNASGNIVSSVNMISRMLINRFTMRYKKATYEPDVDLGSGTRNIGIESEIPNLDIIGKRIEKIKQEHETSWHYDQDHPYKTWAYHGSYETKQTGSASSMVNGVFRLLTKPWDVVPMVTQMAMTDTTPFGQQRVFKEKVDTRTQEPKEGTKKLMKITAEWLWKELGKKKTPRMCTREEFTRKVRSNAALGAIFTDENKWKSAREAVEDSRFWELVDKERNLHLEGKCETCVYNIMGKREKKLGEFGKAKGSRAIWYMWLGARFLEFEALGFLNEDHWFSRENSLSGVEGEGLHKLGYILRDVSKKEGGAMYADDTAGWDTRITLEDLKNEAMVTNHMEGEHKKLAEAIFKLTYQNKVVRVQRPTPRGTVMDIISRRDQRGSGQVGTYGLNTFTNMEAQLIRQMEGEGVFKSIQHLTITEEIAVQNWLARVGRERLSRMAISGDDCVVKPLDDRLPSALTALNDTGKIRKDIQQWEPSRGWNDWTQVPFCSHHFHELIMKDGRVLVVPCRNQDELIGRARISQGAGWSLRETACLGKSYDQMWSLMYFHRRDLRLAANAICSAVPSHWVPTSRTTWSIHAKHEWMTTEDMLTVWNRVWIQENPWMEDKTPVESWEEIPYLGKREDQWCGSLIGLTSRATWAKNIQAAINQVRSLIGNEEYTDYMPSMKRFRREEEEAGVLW

[10] = target: T4, Rac GTPase-activating protein 1 (Homo sapiens, UniProt Q9H0H5); experiment: MgcRacGAP GTPase-activating activity inhibitors, confirmation, biochemical, ADP Hunter fluorescence, primary and confirmatory (AID 624330); type: functional
T4 sequence (Q9H0H5 whole entry): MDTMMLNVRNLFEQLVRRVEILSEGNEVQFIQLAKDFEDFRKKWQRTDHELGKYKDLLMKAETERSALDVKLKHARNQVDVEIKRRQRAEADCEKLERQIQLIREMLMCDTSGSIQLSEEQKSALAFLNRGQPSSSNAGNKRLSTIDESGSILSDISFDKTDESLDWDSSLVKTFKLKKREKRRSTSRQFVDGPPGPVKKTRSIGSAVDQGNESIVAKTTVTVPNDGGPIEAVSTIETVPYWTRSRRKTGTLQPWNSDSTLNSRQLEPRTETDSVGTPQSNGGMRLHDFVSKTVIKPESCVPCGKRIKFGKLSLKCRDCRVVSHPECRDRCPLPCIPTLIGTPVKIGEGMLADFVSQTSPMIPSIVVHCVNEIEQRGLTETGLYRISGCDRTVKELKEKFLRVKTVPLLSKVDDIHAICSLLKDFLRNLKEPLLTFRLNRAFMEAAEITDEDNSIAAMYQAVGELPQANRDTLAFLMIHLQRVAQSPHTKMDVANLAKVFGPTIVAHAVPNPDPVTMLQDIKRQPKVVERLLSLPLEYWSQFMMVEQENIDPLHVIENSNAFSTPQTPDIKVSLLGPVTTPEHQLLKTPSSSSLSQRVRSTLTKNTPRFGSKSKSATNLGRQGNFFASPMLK

[11] = target: T5, Replicative DNA helicase DnaB (Mycobacterium tuberculosis, UniProt P9WMR3); experiment: DnaB intein splicing inhibitors, dose response, biochemical, cell-free fluorescence (AID 449749); type: functional
T5 sequence (P9WMR3 whole entry): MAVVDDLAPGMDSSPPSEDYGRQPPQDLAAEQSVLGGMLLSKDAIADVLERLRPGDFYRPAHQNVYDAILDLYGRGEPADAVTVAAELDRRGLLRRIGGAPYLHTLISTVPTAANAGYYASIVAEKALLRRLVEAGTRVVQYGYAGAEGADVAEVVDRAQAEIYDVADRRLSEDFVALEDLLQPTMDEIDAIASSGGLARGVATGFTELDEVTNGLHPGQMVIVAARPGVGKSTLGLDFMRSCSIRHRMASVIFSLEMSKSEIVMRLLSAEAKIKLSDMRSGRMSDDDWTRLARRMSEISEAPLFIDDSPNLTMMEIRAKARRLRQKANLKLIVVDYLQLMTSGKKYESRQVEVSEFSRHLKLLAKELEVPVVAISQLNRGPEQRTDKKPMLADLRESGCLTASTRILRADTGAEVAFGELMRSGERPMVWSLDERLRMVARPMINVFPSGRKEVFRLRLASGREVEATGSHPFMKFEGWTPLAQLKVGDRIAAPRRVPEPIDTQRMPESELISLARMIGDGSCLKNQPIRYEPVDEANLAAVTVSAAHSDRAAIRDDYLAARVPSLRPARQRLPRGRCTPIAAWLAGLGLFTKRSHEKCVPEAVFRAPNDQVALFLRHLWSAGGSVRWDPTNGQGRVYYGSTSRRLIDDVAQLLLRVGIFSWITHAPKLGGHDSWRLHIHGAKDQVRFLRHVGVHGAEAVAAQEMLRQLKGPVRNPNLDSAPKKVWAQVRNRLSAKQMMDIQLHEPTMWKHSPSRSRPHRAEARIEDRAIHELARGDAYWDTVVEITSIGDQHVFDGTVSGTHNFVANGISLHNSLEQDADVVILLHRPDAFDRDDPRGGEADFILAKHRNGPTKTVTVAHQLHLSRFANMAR

[12] = target: T6, Protein RecA (Mycobacterium tuberculosis, UniProt P9WHJ3); experiment: Fluorescence Cell-Free Homogeneous Dose Retest to Identify Inhibitors of RecA-Intein Splicing Activity. [Related pubchem assays (depositor defined):AID2097, AID2223, AID489010, AID492950]; type: functional
T6 sequence (P9WHJ3 whole entry): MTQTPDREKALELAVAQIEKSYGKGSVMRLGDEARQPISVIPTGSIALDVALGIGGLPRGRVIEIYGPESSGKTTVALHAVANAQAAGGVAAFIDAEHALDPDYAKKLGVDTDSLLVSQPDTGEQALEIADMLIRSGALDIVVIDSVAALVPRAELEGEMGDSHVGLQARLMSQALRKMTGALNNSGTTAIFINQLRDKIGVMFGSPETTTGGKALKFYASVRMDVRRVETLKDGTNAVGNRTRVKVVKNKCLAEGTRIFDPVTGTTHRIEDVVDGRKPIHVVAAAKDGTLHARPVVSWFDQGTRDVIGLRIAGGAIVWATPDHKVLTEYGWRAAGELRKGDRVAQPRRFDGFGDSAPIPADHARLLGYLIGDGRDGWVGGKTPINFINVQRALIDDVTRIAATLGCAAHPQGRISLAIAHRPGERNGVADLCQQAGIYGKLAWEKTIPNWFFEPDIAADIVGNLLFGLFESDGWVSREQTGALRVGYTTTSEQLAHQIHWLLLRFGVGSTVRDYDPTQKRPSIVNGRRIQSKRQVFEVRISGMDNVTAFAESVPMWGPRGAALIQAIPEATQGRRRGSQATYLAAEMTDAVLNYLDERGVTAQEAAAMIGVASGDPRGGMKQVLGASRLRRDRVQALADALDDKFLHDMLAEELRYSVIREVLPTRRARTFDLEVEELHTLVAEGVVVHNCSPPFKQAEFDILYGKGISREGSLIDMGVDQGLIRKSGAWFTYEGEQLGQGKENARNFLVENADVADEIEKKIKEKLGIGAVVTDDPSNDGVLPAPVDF

[13] = target: T7, Histone-lysine N-methyltransferase NSD2 (Homo sapiens, UniProt O96028); type: biochemical
T7 sequence (O96028 whole entry): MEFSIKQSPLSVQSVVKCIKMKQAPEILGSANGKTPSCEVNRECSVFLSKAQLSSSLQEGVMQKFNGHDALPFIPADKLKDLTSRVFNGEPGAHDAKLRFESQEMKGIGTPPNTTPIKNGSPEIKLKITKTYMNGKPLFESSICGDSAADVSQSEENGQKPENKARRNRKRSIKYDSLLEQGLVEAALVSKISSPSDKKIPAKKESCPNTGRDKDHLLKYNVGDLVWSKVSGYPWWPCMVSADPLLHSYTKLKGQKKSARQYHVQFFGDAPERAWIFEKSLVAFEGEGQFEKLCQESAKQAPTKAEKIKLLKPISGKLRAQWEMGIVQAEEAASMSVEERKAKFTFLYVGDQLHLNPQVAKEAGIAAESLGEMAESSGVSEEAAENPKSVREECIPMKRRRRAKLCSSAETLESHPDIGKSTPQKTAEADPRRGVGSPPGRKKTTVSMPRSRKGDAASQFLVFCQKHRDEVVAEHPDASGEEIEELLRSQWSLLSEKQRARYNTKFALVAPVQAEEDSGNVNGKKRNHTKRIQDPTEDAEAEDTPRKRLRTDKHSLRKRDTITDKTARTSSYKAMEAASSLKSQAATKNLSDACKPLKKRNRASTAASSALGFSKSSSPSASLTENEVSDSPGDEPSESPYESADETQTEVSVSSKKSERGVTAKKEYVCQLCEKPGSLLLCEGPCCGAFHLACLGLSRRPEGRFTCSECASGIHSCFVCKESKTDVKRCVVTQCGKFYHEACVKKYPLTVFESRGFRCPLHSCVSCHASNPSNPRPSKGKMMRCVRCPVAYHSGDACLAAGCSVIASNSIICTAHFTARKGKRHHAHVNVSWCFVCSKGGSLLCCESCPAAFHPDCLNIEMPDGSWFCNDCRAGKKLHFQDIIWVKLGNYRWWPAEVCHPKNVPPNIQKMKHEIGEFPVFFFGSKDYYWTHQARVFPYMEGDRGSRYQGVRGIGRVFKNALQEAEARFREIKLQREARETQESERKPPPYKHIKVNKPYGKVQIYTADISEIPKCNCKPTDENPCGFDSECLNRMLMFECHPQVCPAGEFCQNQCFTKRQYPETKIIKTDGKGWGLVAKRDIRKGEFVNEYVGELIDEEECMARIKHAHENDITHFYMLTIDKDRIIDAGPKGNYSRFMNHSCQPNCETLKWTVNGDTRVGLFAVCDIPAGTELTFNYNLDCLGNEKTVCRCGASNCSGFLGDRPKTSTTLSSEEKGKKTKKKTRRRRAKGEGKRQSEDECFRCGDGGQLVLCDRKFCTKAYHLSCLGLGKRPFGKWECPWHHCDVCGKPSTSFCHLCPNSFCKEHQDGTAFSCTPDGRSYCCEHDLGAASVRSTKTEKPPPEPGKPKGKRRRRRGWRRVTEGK

Cc1cc(C)cc(N2C(=O)NC(=O)/C(=C\c3cccn3-c3ccccc3)C2=O)c1
CC50 [1]: 19.9 µM (active) | EC50 [2]: 10.3 µM (active) | AC50 [3]: 13.8 µM (active) | IC50 [4]: > 80 µM (inactive)

COc1ccc(CNC(=O)c2ccccc2NS(C)(=O)=O)cc1
AC50 [5]: 12.4 µM (active) | AC50 [6]: 5.47 µM (active) | AC50 [7]: 11.7 µM (active)

CCN(CC)c1ccc(NC(=O)CCCOc2cccc(C)c2)cc1
IC50 [8]: 50 µM (inactive)

CC1(C)CC(=O)C(C(C2=C(O)CC(C)(C)CC2=O)c2ccc(Br)s2)C(=O)C1 (stereo not drawn)
EC50 [2]: 19.6 µM (active) | IC50 [9]: 21.5 µM (active) | IC50 [10]: 61.5 µM (active)

CC(C)(O)/C=C/C(=O)[C@](C)(O)C1[C@H](O)C[C@@]2(C)C3CC=C4C(C[C@H](O)[C@@H](O)C4(C)C)[C@]3(C)C(=O)C[C@]12C (stereo partly drawn)
IC50 [4]: > 80 µM (inactive)

CN(C)/C=N/c1c(C#N)cnn1-c1ncnc2sc(-c3ccccc3)cc12
AC50 [5]: 8.06 µM (active) | AC50 [7]: 19.1 µM (active)

CC(=O)c1c(C)nc(-c2ccc(Cl)cc2)nc1/N=C/N(C)C
IC50 [8]: 40 µM (inactive) | AC50 [11]: > 380 µM (inactive) | EC50 [12]: > 380 µM (inactive) | AC50 [13]: > 20 µM (inactive)

— ChEMBL document CHEMBL1201862, “PubChem BioAssay data set” (2004)
